Experimental findings from patent US20070299087A1, “New Compounds 319” (AstraZeneca AB, priority 2006, published 2007) are described below.

The test concerns the target T1, human β-Secretase (sBACE-Fc) (Homo sapiens, UniProt P56817).
T1 construct: The soluble part of the human β-Secretase (AA 1-AA 460) was cloned; Fc domain of IgG1 (C); made in house
As to the kind of experiment: TR-FRET assay (β-secretase enzyme, substrate (Europium)[…](Qsy7)). Format: biochemical. The procedure: The enzyme used in the IGEN Cleavage-, Fluorescent-, TR-FRET- and BiaCore assays is described as follows:
The soluble part of the human β-Secretase (AA 1-AA 460) was cloned into the ASP2-Fc10-1-IRES-GFP-neoK mammalian expression vector. The gene was fused to the Fc domain of IgG1 (affinity tag) and stably cloned into HEK 293 cells. Purified sBACE-Fc is stored in Tris buffer, pH 9.2 and has a purity of 95%.
Enzyme was diluted to 6 μg/mL and the substrate (Europium)[…](Qsy7) to 200 nM in reaction buffer (NaAcetate, chaps, triton x-100, EDTA pH 4.5). Compounds were diluted to the desired concentration in dimethyl sulfoxide (final dimethyl sulfoxide concentration in assay is 5%). The assay was done in a Costar 384 well round bottom, low volume, non-binding surface plate (Corning #3676). Enzyme (9 μL) and 1 μL of compound in dimethyl sulfoxide was added to the plate, mixed and pre-incubated for 10 min. Substrate (10 μL) was added and the reaction proceeded in the dark for 15 min at RT. The reaction was stopped with the addition of 7 μL NaAcetate, pH 9. The fluorescence of the product was measured on a Victor II plate reader with an excitation wavelength of 340 nm and an emission wavelength of 615 nm. […] The dimethyl sulfoxide control defined the 100% activity level and 0% activity was defined by exclusion of the enzyme (using reaction buffer instead).
(In TR-FRET formats the signal depends on donor and acceptor labels being close together.)

T1 sequence (P56817 22-460): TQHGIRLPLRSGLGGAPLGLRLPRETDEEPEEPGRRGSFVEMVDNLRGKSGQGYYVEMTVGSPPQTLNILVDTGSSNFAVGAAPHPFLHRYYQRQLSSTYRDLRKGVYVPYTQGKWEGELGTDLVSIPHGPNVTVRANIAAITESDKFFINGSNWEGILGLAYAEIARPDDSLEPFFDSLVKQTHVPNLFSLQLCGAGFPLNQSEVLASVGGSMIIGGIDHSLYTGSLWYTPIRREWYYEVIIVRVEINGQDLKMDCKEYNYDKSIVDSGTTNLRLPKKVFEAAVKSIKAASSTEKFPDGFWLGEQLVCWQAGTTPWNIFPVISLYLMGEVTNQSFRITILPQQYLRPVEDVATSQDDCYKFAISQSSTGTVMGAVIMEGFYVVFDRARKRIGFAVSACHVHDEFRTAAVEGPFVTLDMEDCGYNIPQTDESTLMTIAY

`NC1=NC(c2cccc(-c3cc(Cl)cc(Cl)c3)c2)(c2ccco2)C2=NCCCN12` (centres unmarked) [Example 50, 8-(3′,5′-Dichlorobiphenyl-3-yl)-8-(2-furyl)-2,3,4,8-tetrahydroimidazo[1,5-a]pyrimidin-6-amine acetate] showed an IC50 of 74 nM.

The compound `COc1cccc(-c2cccc(C3(c4ccco4)N=C(N)N4CCCN=C43)c2)c1` (centres unmarked) [Example 51, 8-(2-Furyl)-8-(3′-methoxybiphenyl-3-yl)-2,3,4,8-tetrahydroimidazo[1,5-a]pyrimidin-6-amine acetate] came in with a half-inhibitory concentration (IC50) of 472 nM.

Regarding `Cc1nc(C2(c3cccc(-c4cc(Cl)cc(Cl)c4)c3)N=C(N)N3CCCN=C32)cs1` (centres unmarked) [Example 57, 8-(3′,5′-Dichlorobiphenyl-3-yl)-8-(2-methyl-1,3-thiazol-4-yl)-2,3,4,8-tetrahydroimidazo[1,5-a]pyrimidin-6-amine acetate], the IC50 was 3790 nM. This IC50 is about 8-fold higher than that of the compound before.

`NC1=NC(c2ccsc2)(c2cccc(-c3cc(Cl)cc(Cl)c3)c2)C2=NCCCN12` (centres unmarked) [Example 63, 8-(3′,5′-Dichlorobiphenyl-3-yl)-8-(3-thienyl)-2,3,4,8-tetrahydroimidazo[1,5-a]pyrimidin-6-amine acetate] displayed an IC50 of 68 nM.

Compound `NC1=NC(c2ccsc2)(c2cccc(-c3cccnc3F)c2)C2=NCCCN12` (centres unmarked) [Example 64, 8-[3-(2-Fluoropyridin-3-yl)phenyl]-8-(3-thienyl)-2,3,4,8-tetrahydroimidazo[1,5-a]pyrimidin-6-amine acetate] yielded an IC50 of 247 nM.

Regarding `NC1=NC(c2ccncc2)(c2cccc(-c3cccnc3F)c2)C2=NCC(F)(F)CN12` (centres unmarked) [Example 68, 3,3-Difluoro-8-[3-(2-fluoropyridin-3-yl)phenyl]-8-pyridin-4-yl-2,3,4,8-tetrahydroimidazo[1,5-a]pyrimidin-6-amine 0.75 acetate], the IC50 stood at 59 nM.

Turning to `NC1=NC(c2ccncc2)(c2cccc(-c3cncc(F)c3)c2)C2=NCC(F)(F)CN12` (centres unmarked) [Example 71, 3,3-Difluoro-8-[3-(5-fluoropyridin-3-yl)phenyl]-8-pyridin-4-yl-2,3,4,8-tetrahydroimidazo[1,5-a]pyrimidin-6-amine acetate], the IC50 worked out at 120 nM.

On to `COc1cccc(-c2cccc(C3(c4ccncc4)N=C(N)N4CC(F)(F)CN=C43)c2)c1` (centres unmarked) [Example 72, 3,3-Difluoro-8-(3′-methoxybiphenyl-3-yl)-8-pyridin-4-yl-2,3,4,8-tetrahydroimidazo[1,5-a]pyrimidin-6-amine 1.25 acetate], for which 68 nM corresponded to half-maximal inhibition (IC50).

For `NC1=NC(c2ccncc2)(c2cccc(-c3cc(Cl)cnc3F)c2)C2=NCC(F)(F)CN12` (centres unmarked) [Example 73, 3,3-Difluoro-8-[3-(5-Chloro-2-fluoropyridin-3-yl)phenyl]-8-pyridin-4-yl-2,3,4,8-tetrahydroimidazo[1,5-a]pyrimidin-6-amine acetate], it took 61 nM to reach half-maximal inhibition (IC50).

`NC1=NC(c2ccncc2)(c2ccc(F)c(-c3cccnc3F)c2)C2=NCC(F)(F)CN12` (centres unmarked) [Example 81, 3,3-Difluoro-8-[4-fluoro-3-(2-fluoropyridin-3-yl)phenyl]-8-pyridin-4-yl-2,3,4,8-tetrahydroimidazo[1,5-a]pyrimidin-6-amine acetate] gave a concentration for half-maximal inhibition (IC50) of 49 nM. This IC50 and that of the compound before are within 1.5-fold of each other.

In turn, `COc1cccc(-c2cc(C3(c4ccncc4)N=C(N)N4CC(F)(F)CN=C43)ccc2F)c1F` (centres unmarked) [Example 82, 3,3-Difluoro-8-(2′,6-difluoro-3′-methoxybiphenyl-3-yl)-8-pyridin-4-yl-2,3,4,8-tetrahydroimidazo[1,5-a]pyrimidin-6-amine acetate] displayed an IC50 of 42 nM.

For the compound `COc1cncc(-c2cc(C3(c4ccncc4)N=C(N)N4CC(F)(F)CN=C43)ccc2F)c1` (centres unmarked) [Example 83, 3,3-Difluoro-8-[4-fluoro-3-(5-methoxypyridin-3-yl)phenyl]-8-pyridin-4-yl-2,3,4,8-tetrahydroimidazo[1,5-a]pyrimidin-6-amine 0.5 acetate], the IC50 was determined as 48 nM.

With `NC1=NC(c2cccc(-c3cccnc3F)c2)(c2ccncc2F)C2=NCC(F)(F)CN12` (centres unmarked) [Example 90, 3,3-Difluoro-8-(3-fluoropyridin-4-yl)-8-[3-(2-fluoropyridin-3-yl)phenyl]-2,3,4,8-tetrahydroimidazo[1,5-a]pyrimidin-6-amine], the IC50 was 290 nM.

On to `NC1=NC(c2cccc(-c3cncnc3)c2)(c2ccncc2F)C2=NCC(F)(F)CN12` (centres unmarked) [Example 91, 3,3-Difluoro-8-(3-fluoropyridin-4-yl)-8-(3-pyrimidin-5-ylphenyl)-2,3,4,8-tetrahydroimidazo[1,5-a]pyrimidin-6-amine], for which the IC50 was found to be 440 nM.

A word on the IC50: it is the concentration needed to halve the response being measured.
